Data on 2 compounds can be found in PMC2637266, “Quantification of gamma-secretase modulation differentiates inhibitor compound selectivity between two substrates Notch and amyloid precursor protein” (Molecular Brain, 2008).

Like-named read-outs stand apart in the source and are kept apart here.

The test system of test [1] is Notch target gene her6. Nature of the test: Whole mount in situ hybridization of Notch target gene her6 in treated zebrafish embryos. In kind it is in vivo. From the text:
To examine the effect of DAPT and cpd E on Notch signaling, embryos treated with different concentrations of DAPT or cpd E were stained by whole mount in situ hybridization using a her6 probe (Fig 5). The expression level of Notch downstream target gene her6 correlates to the levels of Notch signaling, i.e., a loss of her6 staining corresponds to an inhibition of γ-secretase mediated Notch signaling. We have focused on the specific effect of γ-secretase inhibitors on Notch signaling in brain region.
Figure 5 Expression levels of Notch target gene her6 are consistent with the curvature phenotype. Increasing concentrations of DAPT or cpd E were applied to de-chorionated zebrafish embryos from 24 hpf until 48 hpf, and in situ hybridization of compound-treated embryos was carried out at 48 hpf using the her6 probe. At least 10 to 20 embryos were examined for each experiment. Images were taken at the 64× magnification for stained embryos.
In situ hybridization of compound-treated embryos was carried out at 2 dpf according to standard protocols using the her6 probe. Single-stranded RNA probes against her6 were synthesized from a cDNA clone (provided by Dr. P Raymond, University of Michigan, Ann Arbor, MI) using T7 RNA polymerase after linearization by restriction digest. The probe was then labeled with digoxigenin-UTP (Roche, Basel, Switzerland). At least 10 to 20 embryos were examined for each experiment. Images were taken at 64× magnification for stained embryos.

In test [2] the target is T1, γ-secretase cleavage of NotchΔE (Homo sapiens, UniProt P49768).
T1 construct: endogenous in cells; host or cells: HEK293 stably expressing Swedish mutant human APP695, transiently transfected with NotchΔE
Nature of the test: NICD generation in NotchΔE transfected HEK293 cells, Western blot. In kind it is cell-based. As to conditions: for NICD generation in cultured cells: high doses. The method, then: Since many compounds could behave differently in vitro versus in culture cells, cpd E and DAPT were tested in cultured cells (Fig. 2). HEK293 cells stably expressing Swedish mutant APP were transiently transfected with NotchΔE, a truncated Notch construct that is readily cleaved by the γ-secretase to generate NICD for downstream signaling transduction. NotchΔE expressing cells were treated with increasing concentrations of DAPT or cpd E. Cell lysates were subjected to WB for measuring the generation of NICD (Fig. 2A), and conditioned media were collected for Aβ measurement by ELISA (Fig. 2B,C).
(§1) Figure 2 Generation of NICD and Aβ from NotchΔE and APP expressing cells. A. Twenty four hrs after the construct carrying NotchΔE was transfected into APP expressing HEK293 cells, cells were treated with DAPT or cpd E for 8 hr and lysed for WB with antibody 1744 to specifically detect the N-terminus of NICD. Bottom panel, the antibody against α-tubulin was applied to normalize the amounts of lysates used for WB. B. Levels of NICD determined by WB were quantified by densitometry (dotted line). Levels of Aβ generated from the γ-secretase cleavage of APP in the presence of DAPT were determined by ELISA. […] C. NICD (dotted line) and Aβ (solid line) production from cpd E-treated cells were compared. […] D. A luciferase reporter construct driven by HES1 promoter was transfected into HEK293 cells followed by treatment with cpd E or DAPT.
The cDNA construct NotchΔE has a c-myc tag and is a truncated Notch molecule that is an immediate substrate for γ-secretase cleavage to generate Notch intracellular domain (NICD). Two chimeric cDNA constructs express […] the juxtamembrane portion of the APP ectodomain (the α-secretase cleavage region) replaced by the corresponding sequence in Notch (APP-α-NOTCH). These cDNA constructs were provided by Dr. Dennis Selkoe. Hes-1 reporter construct (Hes-Luc) was generated by insertion three of Su(H) binding sequence
Human embryonic kidney (HEK) 293 cells stably expressing Swedish mutant human APP695 were transfected with different cDNA constructs and maintained in 200 μg/ml G418 (Invitrogen, Carlsbad, CA). Transfected cells were treated with two γ-secretase inhibitors cpd E or DAPT for 8 hr. Conditioned media were collected for ELISA, and cell lysates were analyzed by Western blot as described. Cells co-transfected with Hes-Luc and NotchΔE were treated with compounds followed by the measurement of luciferase activity (Luciferase Assay System, Promega, Madison, WI).

In test [3] the test system is NICD dependent luciferase activity (Hes-1 reporter). In words: Hes-Luc luciferase reporter assay in HEK293 cells co-transfected with NotchΔE. In kind it is cell-based, human. As to conditions: at concentrations that completely blocked Aβ generation. The protocol:
as §1
Semi-quantification of NICD levels was detected by WB, and the inhibition profile of DAPT (Fig. 2B) and cpd E (Fig. 2C) were compared on NICD and Aβ generation in cultured cells. […] Since Notch signaling and levels of NICD can be examined by quantifying the expression of the Notch target gene, a Hes-1 reporter construct (Hes-Luc) was generated by insertion of three Su(H) binding sequences in the pGL3-pro luciferase reporter vector. […]
On the technique in general: A reporter such as luciferase makes a cellular process visible.

Test [4] has as its system brain Aβ. Details: method as in PMID 11145990. As to conditions: transgenic mouse, human familial AD linked V717F APP; cited from earlier work.
The subject of test [5] is Aβ generation. On the set-up: method as in PMID 10915801. As to conditions: found as low as; read-out: IC50 for Aβ generation in cultured cells; cited from earlier work.

Take `C[C@H](NC(=O)Cc1cc(F)cc(F)c1)C(=O)N[C@H](C(=O)OC(C)(C)C)c1ccccc1` [DAPT, N-[N-(3,5-Difluorophenacetyl-L-alanyl)]-S-phenylglycine t-Butyl Ester]: the her6 expression entry in test [1] (0.5 μM, 24 hpf until 48 hpf) is “very similar staining pattern to the control embryos”; in test [1] (5 μM, 24 hpf until 48 hpf), “staining of her6 started to appear”; in test [1] (50 μM, 24 hpf until 48 hpf) it was “significantly reduced or disappeared in most areas”. Further, the “Notch cleavage reduced to, cell culture based assay” value in test [2] (1 μM or higher) is reported as “about 50%”. Moreover, the EC50 in test [2] (Fig. 2B and 2C, read-out: EC50 to reduce NICD generation in cultured cells) is approximately 1000 nM. The “NICD generation in cultured cells” value in test [2] was “could not completely eliminate NICD generation”. Moreover, the luciferase activities remained entry in test [3] is “about 50%”. Further, in test [4], the “brain Aβ” value is given as “dose-dependent, acute decrease in brain Aβ”.
On to `C[C@H](NC(=O)Cc1cc(F)cc(F)c1)C(=O)N[C@H]1N=C(c2ccccc2)c2ccccc2N(C)C1=O` [cpd E, (S,S)-2-[2-(3,5-Difluorophenyl)-acetylamino]-N-(1-methyl-2-oxo-5-phenyl-2,3-dihydro-1H-benzo [e] [1,4]diazepin-3-yl)-propionamide], for which, in test [5], the IC50 is 0.3 nM. For the same compound, the her6 expression result was “slightly reduced expression level of her6 gene” in test [1] (50 μM, 24 hpf until 48 hpf) and “reduction of her6 staining” in test [1] (highest testing doses). In addition, the EC50 in test [2] (EC50 for the inhibition of NICD generation in cultured cells, Fig. 2) was less than 100 nM; in test [2] (EC50 to reduce NICD generation in cultured cells, Fig. 2B and 2C), 10 nM. Besides, the “NICD generation in cultured cells” value in test [2] is “could not completely eliminate NICD generation”. The luciferase activities remained result in test [3] is “about 50%”.
